Measurements published in patent US20260373233A1, “ISLET AMYLOID POLYPEPTIDE ISOFORMS AND PEPTIDES AND METHODS OF USE” (The United States of America, as represented by the …, priority 2022, published 2026).
Peptide text beside a SMILES is read from it.

Assays:
IAPP37 = biological target: T1, IAPP37 (Homo sapiens, UniProt P10997); test: Thioflavin T (ThT) IAPP37 fibrillation assay; type: biochemical; settings: 37 °C; for IAPP aggregation dynamics (AUC of ThT fluorescence) with inhibitor, % of IAPP37 aggregation: linear range of 90-160 min, 50 μM IAPP37 with 50 μM inhibitory peptide, p=0.003
T1 construct: ThT fibrillation assay
T1 sequence (P10997 34-70): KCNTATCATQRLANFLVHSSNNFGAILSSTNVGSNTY
Protocol: (§1) Thioflavin T in vitro assay for IAPP and Ab amyloid formation: Thioflavin T (ThT) was from Millipore-Sigma (Cat #T3516, Rockville, MD). […] Black 96 well microplates (Chimney Well) were from Greiner Bio-One (Frickenhausen, Germany). C-terminal amidated IAPP25 and DNSP11 peptides were synthesized by GeneMed Synthesis Inc (San Antonio, TX). […] The final concentration […] 1% DMSO and 25 μM ThT in Component A buffer (AnaSpec Manual of SensoLyte Thioflavin T Aggregation Kit, Cat #AS-72214).
Statistical data analysis: GraphPad Prism v9 software was used for statistical analysis of RT-qPCR and SRM data and MetaboAnalyst v5.0 (metaboanalyst.ca/) was used for partial least squares-discriminant analysis (PLS-DA). P<0.05 was considered significant and data were represented as means±SEM. The normalized expression values of IAPP isoforms in TaqMan fold changes and ddPCR IAPP/GAPDH droplets, ELISA, and SRM quantitative values were analyzed with unpaired student t-test, Pearson correlation coefficient matrix. All statistical procedures for SRM biomarker discovery were carried out by using GraphPad Prism v9 software and MetaboAnalyst 5.0. Biomarker accuracies were calculated by area under the receiver operating characteristic curve (AUROC). For ThT amyloid dye assay, area under a curve (AUC) was calculated using the trapezoidal rule and the data were analyzed using one-way ANOVA with Tukey's multiple comparison correction. The ratio of means (±SEM) was calculated by propagation of error formula.
(§2) FIG. 10A is a representative experiment of three replicates showing IAPP37 aggregation dynamics with lag time of 90 min and inhibition by IAPP25 (derived from IAPP-γ) and DNSP11. […] ThT binding fluorescent intensity (F.I.) was transformed to area under curve (AUC) using the trapezoidal rule and the inhibitions were analyzed by one-way ANOVA with Tukey's multi-test correction.

Aβ42 = biological target: T2, Aβ42 (Homo sapiens, UniProt P05067); test: Thioflavin T (ThT) Aβ42 fibrillation assay; type: biochemical; settings: linear range of 70-120 min; 50 μM Aβ42 with 50 μM inhibitory peptide; 37 °C; p<0.0001
T2 construct: ThT fibrillation assay
Protocol: Thioflavin T in vitro assay for IAPP and Ab amyloid formation: Thioflavin T (ThT) was from Millipore-Sigma (Cat #T3516, Rockville, MD). […] Black 96 well microplates (Chimney Well) were from Greiner Bio-One (Frickenhausen, Germany). […] The final concentration the monomeric peptides was 1% DMSO and 25 μM ThT in Component A buffer (AnaSpec Manual of SensoLyte Thioflavin T Aggregation Kit, Cat #AS-72214).
P<0.05 was considered significant and data were represented as means±SEM. […] For ThT amyloid dye assay, area under a curve (AUC) was calculated using the trapezoidal rule and the data were analyzed using one-way ANOVA with Tukey's multiple comparison correction. The ratio of means (±SEM) was calculated by propagation of error formula.

[1] = ThT amyloid reporter binding assay of peptide alone
Protocol: as §1, §2

dopaminergic neurons = settings: animal models of Parkinson's disease; amidated DNSP11; cited from earlier work

T2 sequence (P05067 672-713): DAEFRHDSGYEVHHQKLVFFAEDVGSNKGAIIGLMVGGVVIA

Row | Compound | lag time of IAPP37 aggregation (IAPP37; IAPP37, representative experiment of three replicates) [min] | IAPP aggregation dynamics (AUC of ThT fluorescence) with inhibitor, % of IAPP37 aggregation (IAPP37) [%] | Aβ aggregation dynamics (AUC of ThT fluorescence) with inhibitor, % of Aβ42 aggregation (Aβ42) [%] | binding to ThT amyloid reporter [1] | protection of dopaminergic neurons (dopaminergic neurons)
1 | KCNTATCATQRLANFLVHSSNNFGAILSSTNVGSNTY [IAPP37, mature human IAPP, 37-AA peptide (AnaSpec Cat #AS-60254-1), reference compound] | 90 | – | – | – | –
2 | CC[C@H](C)[C@H](NC(=O)[C@H](CCC(N)=O)NC(=O)[C@H](Cc1c[nH]c2ccccc12)NC(=O)[C@H](C)NC(=O)[C@H](CO)NC(=O)[C@H](CCCNC(=N)N)NC(=O)[C@H](CCC(N)=O)NC(=O)[C@@H](NC(=O)[C@H](Cc1c[nH]cn1)NC(=O)[C@@H]1CCCN1C(=O)[C@H](CC(C)C)NC(=O)[C@@H](NC(=O)[C@H](C)NC(=O)[C@H](CC(N)=O)NC(=O)CNC(=O)[C@H](CO)NC(=O)[C@H](CCCCN)NC(=O)[C@H](Cc1c[nH]c2ccccc12)NC(=O)[C@H](CCCNC(=N)N)NC(=O)[C@@H](NC(=O)[C@@H](NC(=O)[C@H](CCCCN)NC(=O)[C@H](CO)NC(=O)[C@@H](N)CCCCN)C(C)C)[C@@H](C)CC)[C@@H](C)O)C(C)C)C(=O)N[C@@H](Cc1ccccc1)C(N)=O [IAPP25] (H-KSKVIRWKSGNATLPHVQRSAWQIF-NH2) | – | 25.0 | 50.6 | did not bind | –
3 | CC(C)C[C@H](NC(=O)[C@H](CO)NC(=O)[C@H](CCCNC(=N)N)NC(=O)[C@H](CC(=O)O)NC(=O)[C@H](CCC(=O)O)NC(=O)[C@H](C)NC(=O)[C@@H]1CCCN1C(=O)[C@H](C)NC(=O)[C@H](CCC(=O)O)NC(=O)[C@@H]1CCCN1C(=O)[C@@H]1CCCN1)C(N)=O [DNSP11] (H-PPEAPAEDRSL-NH2) | – | 24.1 | 62.9 | did not bind | protective to dopaminergic neurons
